Consider one compound from patent US10526343B2, “Heterocyclic systems and pharmaceutical applications thereof” (University of Sharjah, priority 2018, dated 2020).

Holding throughout (experiment): MIC by broth microdilution
What all share (assay type): cell-based

The test system of assay [1] is UDH-7 (environmental isolate, S. haemolyticus). In a few lines:
(§1)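 The strains are multidrug-resistant environmental isolates, and MICs were measured by CLSI broth microdilution in Mueller-Hinton broth using two-fold dilutions from 100 to 0.78 μg/mL, incubated 20 h at 37 °C. CellTiter-Blue was then added for 4 h at 37 °C, and the MIC was taken as the lowest concentration preventing the blue-to-pink colour change.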

In assay [2] the test system is UDH-2 (environmental isolate, S. saprophyticus). As to conditions: Staphylococcus saprophyticus. In a few lines:
as §1

Assay [3] relates to UDH-5 (environmental isolate, S. epidermidis). As to conditions: Staphylococcus epidermidis. In a few lines:
as §1

Assay [4] has as its system UDH-4 (environmental isolate, S. saprophyticus). As to conditions: Staphylococcus saprophyticus. In a few lines:
as §1

The test system of assay [5] is UDH-1 (environmental isolate, S. saprophyticus). In a few lines:
as §1

Assay [6] concerns UDH-3 (environmental isolate, S. saprophyticus). In a few lines:
as §1

Assay [7] has as its system UDH-6 (environmental isolate, S. haemolyticus). In a few lines: as §1
The subject of assay [8] is MRSA-1 (clinical isolate, methicillin-resistant Staphylococcus aureus). In a few lines:
(§2)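 CLSI broth microdilution in Mueller-Hinton broth, two-fold series from 100 to 0.78 μg/mL, incubated 20 h at 37 °C. CellTiter-Blue then added for 4 h at 37 °C. MIC is the lowest concentration preventing the blue-to-pink color change, i.e. no bacterial growth.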

In assay [9] the test system is MRSA-3 (clinical isolate, methicillin-resistant Staphylococcus aureus). In a few lines: as §2
Assay [10] has as its system MRSA-2 (clinical isolate, methicillin-resistant Staphylococcus aureus). In a few lines: as §2
Where [11] appears, read: Staphylococcus haemolyticus, environmental isolate.
The mark [12] stands for this setting: Staphylococcus saprophyticus, environmental isolate.

Broadly, the MIC is the smallest concentration in the dilution series that meets the test's criterion for growth inhibition. Lower therefore signals greater potency. `COC(=O)CC1COc2c(cc3c4c2CCCN4CCC3)-c2c(NC(C)(C)C)n3c(-c4ccc(Br)cc4)c(C)sc3[n+]21` (stereo not drawn) [Compound 1o]: the MIC in assay [1] (setting [11]) is 6.25 µg/mL; in assay [2] it was 6.25 µg/mL; in [3], 3.12 µg/mL; in assay [4] it was 6.25 µg/mL; in assay [5] (setting [12]), 6.25 µg/mL; in assay [6] (setting [12]), 3.12 µg/mL. The MIC in [7] (setting [11]) was determined as 6.25 µg/mL; in assay [8] (Staphylococcus aureus, MRSA, clinical isolate), 3.12 µg/mL; in [9], 3.12 µg/mL; in assay [10] it was 3.12 µg/mL. Moreover, the “times lower than MIC of ciprofloxacin” value in assay [1] (UDH-7) is recorded as “approximately 10 times”; in assay [5] (UDH-1), “approximately 10 times”; in assay [6] (UDH-3), “approximately 20 times”; in assay [7] (UDH-6), “approximately 10 times”. For the same compound, the “times lower than the MIC of ciprofloxacin” value in assay [8] (MRSA-1) is on record as “approximately 10 times”.
